EC50 data for 50 compounds are collected here from patent publication US20250163009A1, “BENZOTHIA(DIA)ZEPINE COMPOUNDS FOR TREATMENT OF HBV AND HDV” (Assembly Biosciences, Inc., priority 2022, published 2025).

One assay concerns HBV. The assay is described as follows: HepG2-NTCP infection protocol, HBeAg quantification by ECL-ELISA. It counts as cell-based. The note with it: HepG2-NTCP cells infected with HBV at MOI 50; compound 24 hours, then 72 hours; HBeAg in supernatant. As for the experimental part: HepG2 cells expressing the sodium taurocholate cotransporting polypeptide (HepG2-NTCP) were maintained in culture using HepG2-NTCP growth medium (DMEM (HyClone, Cat #SH30243.02) supplemented with 10% FBS, 150 μg/mL G418 (Alfa Aesar, Cat #J62671), 50 U/mL penicillin-streptomycin (Invitrogen, Cat #15140-122), and 0.5 μg/mL blasticidin (Sigma, Cat #15205)). Prior to infection, the cells were washed twice with 1×DPBS (Invitrogen, Cat #14190-136) and treated with 3 mL of 0.05% trypsin (Invitrogen, Cat #25200-056) to dissociate the cells. Following dissociation, 10 mL of HepG2-NTCP growth medium was added to the cells to neutralize the trypsin and the cells were then centrifuged at 1,300 rpm for 5 minutes. Following centrifugation, the cells were resuspended in 10 mL of HepG2-NTCP growth medium, counted, and then centrifuged at 1,300 rpm for 5 minutes. The cell pellet was resuspended in DMEM supplemented with 5% FBS, 50 U/mL penicillin-streptomycin, 4% PEG-8000 (Hamilton Research, Cat #HR2-515), and 1% DMSO (Sigma, Cat #D4540) to a density of 5.6×10^5 cells/mL and infected with HBV at an MOI of 50. Immediately after infection, 90 μL of the cell/HBV mixture was added to a 96-well plate containing 10 μL of compound and incubated at 37° C. for 24 hours (2% final DMSO concentration). After the incubation, the infection media was removed and replaced with DMEM supplemented with 5% FBS, 50 U/mL penicillin-streptomycin, and 1% DMSO and incubated for an additional 72 hours. At the end of the incubation, the plates were spun at 1,800 rpm for 8 minutes and the supernatant was removed for HBeAg quantification using electrochemiluminescence enzyme-linked immunosorbent assays (ECL-ELISA).
To conduct the HBeAg ECL-ELISA, Lumitrack high-binding 96-well plates (Greiner, Cat #655074) were treated with 625 ng/mL HBeAg mAb (Biocheck, Cat #70426) in 1×DPBS for 2 hours at 25° C. with shaking. The HBeAg mAb solution was then removed and the plates treated with 1×DPBS containing 0.5% bovine serum albumin (BSA) (Sigma, Cat #A7030-100 g) for 2 hours at 25° C. with shaking. The HBeAg-coated plates were then washed 4 times with 1×DPBS containing 0.05% Tween 20 (DPBS-T) (Thermo Fisher Scientific, Cat #J61544-K2). Following the wash, 90 μL of HRP-conjugated antibody (Fitzgerald, Cat #61-H10K), diluted 1:8,000 in 1×DPBS-T containing 0.5% BSA, was added to the HBeAg-coated plates along with 10 μL of sample. The plates were then incubated for 2 hours at 25° C. with shaking. Following the incubation, the sample was then removed and 200 μL of 1×PBS-T was added and the plates were incubated for 10 minutes at 25° C. with shaking. The plates were then washed 6 times with 1×PBS-T and blotted dry. 80 μL of ECL substrate (Millipore, Cat #WBKLS0500) was then added to the plate and the luminescence was measured using a Tecan M1000 Pro plate reader.
`CCCCC1CN(C2CCC(F)(F)CC2)c2cc(SC)c(O/C=C(\F)C(=O)O)cc2S(=O)(=O)N1C` (single isomer, unassigned) [Example 2a] showed an EC50 of under 100 nM.

Consider `CCCCC1CN(C2CCC(F)(F)CC2)c2cc(SC)c(O/C=C(\F)C(=O)O)cc2S(=O)(=O)N1C` (single isomer, unassigned) [Example 2b], for which the EC50 is 100 to 1000 nM.

The assay is the same for the next values; noted with them: Hepatitis B virus, HepG2-NTCP cells infected with HBV at MOI 50; compound 24 hours, then 72 hours; HBeAg in supernatant.
Compound `CCCC[C@H]1CN([C@@H]2CCN(C)C2)c2cc(SC)c(O/C=C(\F)C(=O)O)cc2S(=O)(=O)N1C` (relative stereo) [Example 54] showed an EC50 of 1000 to 5000 nM.

In the case of `CCCC[C@H]1CN(C2CCN(C)C2)c2cc(SC)c(O/C=C(\F)C(=O)O)cc2S(=O)(=O)N1C` (stereo in doubt) [Example 55], the EC50 lay within 1000 to 5000 nM.

The compound `CCCCC1CN(C2CCC(F)(F)CC2)c2cc(SC)c(O/C=C(\F)C(=O)O)cc2S(=O)(=O)N1C` (centres unmarked) [Example 2, (Z)-3-((3-butyl-5-(4,4-difluorocyclohexyl)-2-methyl-7-(methylthio)-1,1-dioxido-2,3,4,5-tetrahydrobenzo[f][1,2,5]thiadiazepin-8-yl)oxy)-2-fluoroacrylic acid] gave an EC50 of under 100 nM.

The compound `CCCCC1CN(C2CCC(F)(F)CC2)c2cc(SC)c(O/C=C/C(=O)O)cc2S(=O)(=O)N1C` (centres unmarked) [Example 3] registered a concentration for a half-maximal effect (EC50) of under 100 nM.

In the case of `CCCCC1CN(c2cccnc2)c2cc(SC)c(O/C=C/C(=O)O)cc2S(=O)(=O)N1C` (centres unmarked) [Example 4], the EC50 was 1000 to 5000 nM.

For `CCCCC1CN(c2ccccn2)c2cc(SC)c(O/C=C/C(=O)O)cc2S(=O)(=O)N1C` (centres unmarked) [Example 5], the EC50 fell in the range of 100 to 1000 nM.

`CCCCC1CN(c2ccc(N3CCCC3)cc2)c2cc(SC)c(O/C=C/C(=O)O)cc2S(=O)(=O)N1C` (centres unmarked) [Example 8] yielded an EC50 of under 100 nM.

`C#Cc1ccc(N2CC(CCCC)N(C)S(=O)(=O)c3cc(O/C=C/C(=O)O)c(SC)cc32)cc1` (centres unmarked) [Example 9] gave an EC50 of under 100 nM.

The compound `CCCCC1CN(Cc2ccc(F)cc2)c2cc(SC)c(O/C=C(\F)C(=O)O)cc2S(=O)(=O)N1C` (centres unmarked) [Example 10] gave a concentration giving a half-maximal response (EC50) of under 100 nM.

In the case of `CCCCC1CN(c2ccc(N3CCCC3)cc2)c2cc(SC)c(O/C=C(\F)C(=O)O)cc2S(=O)(=O)N1C` (centres unmarked) [Example 11], the EC50 was under 100 nM.

In turn, `CCCCC1CN(Cc2ccc(F)cc2)c2cc(SC)c(O/C=C(\F)C(=O)OCC)cc2S(=O)(=O)N1C` (centres unmarked) [Example 12] had an EC50 of 100 to 1000 nM.

Consider `CCCCC1CN(Cc2ccc(SC)cc2)c2cc(SC)c(O/C=C(\F)C(=O)OCC)cc2S(=O)(=O)N1C` (centres unmarked) [Example 13], for which the EC50 was in the range of 100 to 1000 nM.

`CCCCC1CN(C2CCCC2)c2cc(SC)c(O/C=C/C(=O)O)cc2S(=O)(=O)N1C` (centres unmarked) [Example 14]: the EC50 was 100 to 1000 nM.

Compound `CCCCC1CN(Cc2ccccc2)c2cc(SC)c(O/C=C/C(=O)O)cc2S(=O)(=O)N1C` (centres unmarked) [Example 15] displayed an EC50 of 100 to 1000 nM.

`CCCCC1CN(C2CCCCC2)c2cc(SC)c(O/C=C(\F)C(=O)O)cc2S(=O)(=O)N1C` (centres unmarked) [Example 16]: the 50% effective concentration (EC50) was under 100 nM.

`CCCCC1CN(Cc2ccc(SC)cc2)c2cc(SC)c(O/C=C(\F)C(=O)O)cc2S(=O)(=O)N1C` (centres unmarked) [Example 17]: the EC50 is under 100 nM.

For `CCCCC1CN(C2CCC(OC)CC2)c2cc(SC)c(O/C=C(\F)C(=O)OCC)cc2S(=O)(=O)N1C` (centres unmarked) [Example 18], the concentration giving a half-maximal response (EC50) was under 100 nM.

Compound `CCCCC1CN(C2CCOCC2)c2cc(SC)c(O/C=C(\F)C(=O)OCC)cc2S(=O)(=O)N1C` (centres unmarked) [Example 19] registered a half-maximal effective concentration (EC50) of 100 to 1000 nM.

In the case of `CCCCC1CN(c2ncccn2)c2cc(SC)c(O/C=C(\F)C(=O)OCC)cc2S(=O)(=O)N1C` (centres unmarked) [Example 20], the 50% effective concentration (EC50) was under 100 nM.

For the compound `CCCCC1CN(C2CCCOC2)c2cc(SC)c(O/C=C(\F)C(=O)OCC)cc2S(=O)(=O)N1C` (centres unmarked) [Example 21], the EC50 fell in the range of 100 to 1000 nM.

Compound `CCCCC1CN(C2CCOC2)c2cc(SC)c(O/C=C/C(=O)O)cc2S(=O)(=O)N1C` (centres unmarked) [Example 22] displayed a concentration for a half-maximal effect (EC50) of 1000 to 5000 nM.

On to `CCCCC1CN(C2CCOCC2)c2cc(SC)c(O/C=C/C(=O)O)cc2S(=O)(=O)N1C` (centres unmarked) [Example 23], for which the EC50 is 100 to 1000 nM.

The compound `CCCCC1CN(c2ncccn2)c2cc(SC)c(O/C=C(\F)C(=O)O)cc2S(=O)(=O)N1C` (centres unmarked) [Example 24] displayed a concentration giving a half-maximal response (EC50) of 100 to 1000 nM.

`CCCCC1CN(C2CCCOC2)c2cc(SC)c(O/C=C(\F)C(=O)O)cc2S(=O)(=O)N1C` (centres unmarked) [Example 25] gave a concentration giving a half-maximal response (EC50) of under 100 nM.

Compound `CCCCC1CN(C2CCOCC2)c2cc(SC)c(O/C=C(\F)C(=O)O)cc2S(=O)(=O)N1C` (centres unmarked) [Example 26] registered an EC50 of 100 to 1000 nM.

In turn, `CC#CCN1CC(CCCC)N(C)S(=O)(=O)c2cc(O/C=C(\F)C(=O)O)c(SC)cc21` (centres unmarked) [Example 27] yielded a half-maximal effective concentration (EC50) of under 100 nM.

In turn, `CCCCC1CN(Cc2ccccc2)c2cc(SC)c(O/C=C(\F)C(=O)O)cc2S(=O)(=O)N1C` (centres unmarked) [Example 28] showed an EC50 of under 100 nM.

Take `CCCCC1CN(C2CCC(F)CC2)c2cc(SC)c(O/C=C(\F)C(=O)OCC)cc2S(=O)(=O)N1C` (centres unmarked) [Example 29]: the EC50 fell in the range of 100 to 1000 nM.

Regarding `CCCCC1CN(C2CCC(F)CC2)c2cc(SC)c(O/C=C(\F)C(=O)O)cc2S(=O)(=O)N1C` (centres unmarked) [Example 30], the EC50 was under 100 nM.

`CCCCC1CN(C2CCC(O)CC2)c2cc(SC)c(O/C=C(\F)C(=O)O)cc2S(=O)(=O)N1C` (centres unmarked) [Example 31] displayed an EC50 of 100 to 1000 nM.

`CCCCC1CN(C2CCCC2)c2cc(SC)c(O/C=C(\F)C(=O)O)cc2S(=O)(=O)N1C` (centres unmarked) [Example 32]: the half-maximal effective concentration (EC50) is under 100 nM.

On to `CCCCC1CN(Cc2cc(F)ccc2F)c2cc(SC)c(O/C=C(\F)C(=O)OCC)cc2S(=O)(=O)N1C` (centres unmarked) [Example 33], for which the EC50 was under 100 nM.

On to `CCCCC1CN(Cc2cc(F)ccc2F)c2cc(SC)c(O/C=C(\F)C(=O)O)cc2S(=O)(=O)N1C` (centres unmarked) [Example 34], for which the 50% effective concentration (EC50) was under 100 nM.

In turn, `CCCCC1CN(CC2CCC(F)(F)CC2)c2cc(SC)c(O/C=C(\F)C(=O)OCC)cc2S(=O)(=O)N1C` (centres unmarked) [Example 35] showed a 50% effective concentration (EC50) of 100 to 1000 nM.

`CCCCC1CN(CC2CCC(F)(F)CC2)c2cc(SC)c(O/C=C(\F)C(=O)O)cc2S(=O)(=O)N1C` (centres unmarked) [Example 36] had an EC50 of under 100 nM.

The compound `CCCCC1CN(Cc2cccc(F)c2)c2cc(SC)c(O/C=C(\F)C(=O)OCC)cc2S(=O)(=O)N1C` (centres unmarked) [Example 37] came in with an EC50 of under 100 nM.

Compound `CCCCC1CN(Cc2cccc(SC)c2)c2cc(SC)c(O/C=C(\F)C(=O)OCC)cc2S(=O)(=O)N1C` (centres unmarked) [Example 38] had an EC50 of 100 to 1000 nM.

Consider `CCCCC1CN(C(=O)c2ccccc2)c2cc(SC)c(O/C=C(\F)C(=O)OCC)cc2S(=O)(=O)N1C` (centres unmarked) [Example 39], for which the EC50 was in the range of 1000 to 5000 nM.

`CCCCC1CN(Cc2cccc(F)c2)c2cc(SC)c(O/C=C(\F)C(=O)O)cc2S(=O)(=O)N1C` (centres unmarked) [Example 40] yielded an EC50 of under 100 nM.

Compound `CCCCC1CN(C(=O)c2ccccc2)c2cc(SC)c(O/C=C(\F)C(=O)O)cc2S(=O)(=O)N1C` (centres unmarked) [Example 41] showed a concentration giving a half-maximal response (EC50) of 1000 to 5000 nM.

Take `CCCCC1CN(Cc2ccc(F)c(F)c2)c2cc(SC)c(O/C=C(\F)C(=O)OCC)cc2S(=O)(=O)N1C` (centres unmarked) [Example 42]: the concentration giving a half-maximal response (EC50) fell in the range of 100 to 1000 nM.

Take `CCCCC1CN(Cc2ccc(F)c(F)c2)c2cc(SC)c(O/C=C(\F)C(=O)O)cc2S(=O)(=O)N1C` (centres unmarked) [Example 43]: the EC50 is under 100 nM.

`CCCCC1CN(C(C)c2ccccc2)c2cc(SC)c(O/C=C(\F)C(=O)OCC)cc2S(=O)(=O)N1C` (centres unmarked) [Example 44] registered an EC50 of 100 to 1000 nM.

The compound `CCCCC1CN(C2CC3CCC2C3)c2cc(SC)c(O/C=C(\F)C(=O)O)cc2S(=O)(=O)N1C` (centres unmarked) [Example 45] gave an EC50 of 1000 to 5000 nM.

`CCCCC1CN(C2CCNCC2)c2cc(SC)c(O/C=C(\F)C(=O)O)cc2S(=O)(=O)N1C` (centres unmarked) [Example 46] showed an EC50 of 1000 to 5000 nM.

For `CCCCC1CN(C2CCN(C)CC2)c2cc(SC)c(O/C=C(\F)C(=O)O)cc2S(=O)(=O)N1C` (centres unmarked) [Example 47], the EC50 lay within 1000 to 5000 nM.

As for `CCCCC1CN(C2CCN(C(C)=O)CC2)c2cc(SC)c(O/C=C(\F)C(=O)O)cc2S(=O)(=O)N1C` (centres unmarked) [Example 48], the EC50 lay within 1000 to 5000 nM.

`CCCCC1CN(c2nccs2)c2cc(SC)c(O/C=C(\F)C(=O)O)cc2S(=O)(=O)N1C` (centres unmarked) [Example 49]: the EC50 fell in the range of 100 to 1000 nM.
